# Read-outs that look alike come from different tables or passages of the source.
# Key:
# K1 P. falciparum strain = assay: In vitro antiplasmodial evaluation (SYBR Green I fluorescence-based method); type: cell-based; details: for SI (selectivity index = CC50/EC50): CC50 HepG2 / EC50 PfK1; for EC50: multi-resistant K1 P. falciparum strain, 72 h incubation, read-out: PfK1 EC50
# Experimental: It was maintained in continuous culture as described previously by Trager and Jensen. […] Parasitemia was maintained daily at between 1 and 3%. The P. falciparum drug susceptibility test was carried out by comparing quantities of DNA in treated and control cultures of parasite in human erythrocytes according to an SYBR Green I fluorescence-based method using a 96-well fluorescence plate reader. […] Duplicate assays were performed for each sample. After incubation, plates were frozen at -20 °C for 24 h. […] Fifteen μL of each sample were transferred to 96-well flat bottom non-sterile black plates (Greiner Bio-one) already containing 15 μL of the SYBR Green I lysis buffer (2X SYBR Green I, 20 mM Tris base pH 7.5, 20 mM EDTA, 0.008% w/v saponin, 0.08% w/v Triton X-100).
# [1] = In vitro cytotoxicity evaluation (MTT); type: cell-based; details: human
# Experimental: Triplicate assays were performed for each sample. Each plate-well was then microscope-examined for possible precipitate formation before the medium was aspirated from the wells. 100 μL of MTT (3-(4,5-dimethyl-2-thiazolyl)-2,5-diphenyl-2H-tetrazolium bromide) solution (0.5 mg/mL in medium without FBS) were then added to each well. […] After this time, the MTT solution was removed and DMSO (100 μL) was added to dissolve the resulting blue formazan crystals. Plates were shaken vigorously (700 rpm) for 10 min. The absorbance was measured at 570 nm with 630 nm as reference wavelength using a BIO-TEK ELx808 Absorbance Microplate Reader (LabX, Midland, ON, Canada). DMSO was used as blank and doxorubicin (purchased from Sigma Aldrich) as positive control. Cell viability was calculated as percentage of control (cells incubated without compound). […] CC50 values represent the mean value calculated from three independent experiments.
# [2] = Solubility of the tested molecule in the culture medium; type: physicochemical; details: culture medium of the cytotoxicity test
# Experimental: HepG2 cell line was maintained at 37 °C, 5% CO2, at 90% humidity in […] supplemented with 10% fetal bovine serum, 1% L-glutamine (200 mM) and penicillin (100 U/mL)/streptomycin (100 µg/mL) (complete RPMI medium). The cytotoxicity of the tested molecules on the HepG2 (hepatocarcinoma cell line purchased from ATCC, ref HB-8065) cell line was assessed according to the method of Mosmann with slight modifications. Briefly, 5.10^3 cells in 100 µL of complete medium were inoculated into each well of 96-well plates and incubated at 37 °C in humidified 5% CO2. After 24 h incubation, 100 μL of medium with various product concentrations dissolved in DMSO (final concentration less than 0.5% v/v) were added and the plates were incubated for 72 h at 37 °C. Triplicate assays were performed for each sample. Each plate-well was then microscope-examined for possible precipitate formation before the medium was aspirated from the wells. 100 μL of MTT (3-(4,5-dimethyl-2-thiazolyl)-2,5-diphenyl-2H-tetrazolium bromide) solution (0.5 mg/mL in medium without FBS) were then added to each well. Cells were incubated for 2 h at 37 °C. After this time, the MTT solution was removed and DMSO (100 μL) was added to dissolve the resulting blue formazan crystals. Plates were shaken vigorously (700 rpm) for 10 min. The absorbance was measured at 570 nm with 630 nm as reference wavelength using a BIO-TEK ELx808 Absorbance Microplate Reader (LabX, Midland, ON, Canada). DMSO was used as blank and doxorubicin (purchased from Sigma Aldrich) as positive control. Cell viability was calculated as percentage of control (cells incubated without compound). […] CC50 values represent the mean value calculated from three independent experiments.
# [3] = Plasmodium falciparum, K1, 72 h
Structure (SMILES),EC50 (K1 P. falciparum strain; [3]),melting point,EC50 (K1 P. falciparum strain),SI (selectivity index = CC50/EC50) (K1 P. falciparum strain),CC50 at 72 h [1],solubility (in words) [2],activity against P. falciparum (in words) (K1 P. falciparum strain; K1 strain)
"CCCCC(=O)Nc1nc(C(Cl)(Cl)Cl)nc2ccccc12 [Molecule 24, N-(2-Trichloromethylquinazolin-4-yl)pentanamide]",≤ 2 µM,136 °C,1.6 µM,,42.3 µM,lack of solubility,
"CC(=O)Nc1nc(C(Cl)(Cl)Cl)nc2ccccc12 [Molecule 20, N-(2-Trichloromethylquinazolin-4-yl)acetamide]",> 10 µM,217 °C,,,31.2 µM,lack of solubility,
"FCCOc1nc(C(Cl)(Cl)Cl)nc2ccccc12 [Molecule 39, 4-(2-Fluoroethoxy)-2-Trichloromethylquinazoline]",8 µM,73 °C,,3.7,29.5 µM,,
"ClC(Cl)(Cl)c1nc(OCCBr)c2ccccc2n1 [Molecule 40, 4-(2-Bromoethoxy)-2-Trichloromethylquinazoline]",2.2 µM,100 °C,,>28,> 62.5 µM,,
"CC(C)Oc1nc(C(Cl)(Cl)Cl)nc2ccccc12 [Molecule 30, 4-Isopropoxy-2-Trichloromethylquinazoline]",> 10 µM,210 °C,,<10,102 µM,,inactive
"O=C(Nc1nc(C(Cl)(Cl)Cl)nc2ccccc12)c1ccccc1 [Molecule 5, N-(2-Trichloromethylquinazolin-4-yl)benzamide]",1.76 µM,183 °C,,13.8,24.2 µM,,
"CC(=O)NCCOc1nc(C(Cl)(Cl)Cl)nc2ccccc12 [Molecule 42, N-{2-[(2-Trichloromethylquinazolin-4-yl)oxy]ethyl}acetamide]",3.3 µM,135 °C,,>30,> 99.7 µM,,
"O=C(Nc1nc(C(Cl)(Cl)Cl)nc2ccccc12)C1CCCCC1 [Molecule 25, N-(2-Trichloromethylquinazolin-4-yl)cyclohexanecarboxamide]",2.4 µM,214 °C,,>6.5,> 15.6 µM,,

# Further lines, with some results ahead:
EC50 (K1 P. falciparum strain; [3]),melting point,EC50 (K1 P. falciparum strain),Structure (SMILES),SI (selectivity index = CC50/EC50) (K1 P. falciparum strain),CC50 at 72 h [1],solubility (in words) [2],activity against P. falciparum (in words) (K1 P. falciparum strain; K1 strain)
3 µM,257 °C,,"O=C(Nc1nc(C(Cl)(Cl)Cl)nc2ccccc12)c1ccccc1[N+](=O)[O-] [Molecule 8, 2-Nitro-N-(2-Trichloromethylquinazolin-4-yl)benzamide]",>5.2,> 15.6 µM,lack of solubility,
1.46 µM,218.2 °C,,"O=C(c1ccc(Cl)cc1)N(C(=O)c1ccc(Cl)cc1)c1nc(C(Cl)(Cl)Cl)nc2ccccc12 [Molecule 3, 4-Chloro-N-(4-Chlorobenzoyl)-N-(2-Trichloromethylquinazolin-4-yl)benzamide]",13.7,20 µM,,
3.5 µM,161 °C,,"CC(C)C(=O)Nc1nc(C(Cl)(Cl)Cl)nc2ccccc12 [Molecule 22, N-(2-Trichloromethylquinazolin-4-yl)isobutyramide]",>9.0,> 31.2 µM,,
5.23 µM,,,"O=C(Nc1nc(C(Cl)(Cl)Cl)nc2ccccc12)c1ccccc1F [Molecule 11, 2-Fluoro-N-(2-Trichloromethylquinazolin-4-yl)benzamide]",,> 15.6 µM,lack of solubility,
2.3 µM,63 °C,,"COCCOc1nc(C(Cl)(Cl)Cl)nc2ccccc12 [Molecule 35, 4-(2-Methoxyethoxy)-2-Trichloromethylquinazoline]",23.1,53.2 µM,,
